Assay results reported in article PMC2679375 (Journal of medicinal chemistry, 2008).

Key:
[1] = in vivo; settings: rat, po
[2] = Aqueous solubility; assay type: physicochemical
[3] = system: MDA-MB-231 cancer cell line; settings: within 24-hour treatment
[4] = target: cIAP-2 (Homo sapiens, UniProt Q13489); assay: FP-based competitive binding assay for cIAP-2; settings: relative to compound 2
[5] = target: XIAP BIR3 (Homo sapiens, UniProt P98170); assay: Competitive fluorescence polarization-based XIAP binding assay; settings: relative to compound 2
XIAP BIR3, sequence (P98170 241-356 limits assumed): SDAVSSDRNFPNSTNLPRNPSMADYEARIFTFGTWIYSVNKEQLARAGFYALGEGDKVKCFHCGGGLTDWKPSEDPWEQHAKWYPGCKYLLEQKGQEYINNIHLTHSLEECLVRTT

cIAP-2, sequence (Q13489 whole entry): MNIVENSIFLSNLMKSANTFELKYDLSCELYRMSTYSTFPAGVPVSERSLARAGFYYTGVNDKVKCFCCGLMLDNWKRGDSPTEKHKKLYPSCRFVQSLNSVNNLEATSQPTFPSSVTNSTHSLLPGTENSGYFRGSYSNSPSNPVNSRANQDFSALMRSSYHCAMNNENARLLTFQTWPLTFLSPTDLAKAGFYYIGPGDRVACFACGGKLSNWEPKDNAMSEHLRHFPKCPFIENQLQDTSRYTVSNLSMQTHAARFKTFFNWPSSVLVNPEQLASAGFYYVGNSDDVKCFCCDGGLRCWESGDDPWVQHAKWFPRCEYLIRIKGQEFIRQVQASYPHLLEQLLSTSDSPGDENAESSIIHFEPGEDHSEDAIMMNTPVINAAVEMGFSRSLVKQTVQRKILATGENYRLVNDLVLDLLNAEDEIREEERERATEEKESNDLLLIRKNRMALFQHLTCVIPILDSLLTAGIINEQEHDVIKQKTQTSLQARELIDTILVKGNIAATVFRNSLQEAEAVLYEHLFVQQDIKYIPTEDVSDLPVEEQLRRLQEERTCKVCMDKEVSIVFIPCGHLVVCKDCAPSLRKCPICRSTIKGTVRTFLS

Structure (SMILES) | times weaker than 2 in binding to cIAP-2 [4] | times weaker than compound 2 in binding to XIAP BIR3 [5] | also measured
CN[C@@H](C)C(=O)N[C@H]1CN(C(=O)Cc2ccccc2)CC[C@H]2CC[C@@H](C(=O)NC(c3ccccc3)c3ccccc3)N2C1=O [Compound 6, (5S,8S,10aR)-N-Benzhydryl-5-((S)-2-(methyl-amino)propanamido)-6-oxo-3-(2-phenyl-acetyl)decahydro pyrrolo[1,2-a][1,5]diazo-cine-8-carboxamide] | – | – | AUC(0-inf) ([1]; 30 mg/kg): 1980 ± 614 ng·h/mL; aqueous solubility (in words) [2]: excellent aqueous solubility; concentration that effectively induces apoptosis [3]: 100 nM
CN[C@@H](C)C(=O)N[C@H]1CN(C)CC[C@H]2CC[C@@H](C(=O)NC(c3ccccc3)c3ccccc3)N2C1=O [Compound 3, (5S,8S,10aR)-N-benzhydryl-3-methyl-5-((S)-2-(methylamino)propanamido)-6-oxodeca-hydro pyrrolo[1,2-a][1,5]diazocine-8-carbox-amide] | 2-3 times | 4-17 times | –
CN[C@@H](C)C(=O)N[C@H]1CN(Cc2ccccc2)CC[C@H]2CC[C@@H](C(=O)NC(c3ccccc3)c3ccccc3)N2C1=O [Compound 4, (5S,8S,10aR)-N-benzhydryl-3-benzyl-5-((S)-2-(methylamino)propanamido)-6-oxodeca-hydropyrrolo[1,2-a][1,5]diazocine-8-carbox-amide] | 2-3 times | 4-17 times | –
CN[C@@H](C)C(=O)N[C@H]1CCCC[C@H]2CC[C@@H](C(=O)NC(c3ccccc3)c3ccccc3)N2C1=O [Compound 1] | – | – | AUC(0-inf) ([1]; 25 mg/kg): 482 ± 92 ng·h/mL
